In ChEMBL document CHEMBL3885881, “DrugMatrix”:

Species: Rattus norvegicus
Assay: DrugMatrix - Regimen: Daily Repeat
Format: toxicity, organism-based, Sprague-Dawley
Parameters: regimen Daily Repeat, gender Male, age 6-8 weeks
Conditions: in vivo, iv, […], vehicle 100 % SALINE; for ALANINE AMINOTRANSFERASE / ALBUMIN / ALKALINE PHOSPHATASE / ASPARTATE AMINOTRANSFERASE / BLOOD UREA NITROGEN / CARBON DIOXIDE / CHLORIDE / CHOLESTEROL / CREATINE PHOSPHOKINASE / CREATININE / GLUCOSE / LACTATE DEHYDROGENASE / LIPASE / PHOSPHORUS / POTASSIUM / SODIUM / TOTAL BILIRUBIN / TOTAL PROTEIN / URIC ACID: tissue Plasma; for ABSOLUTE BASOPHIL / ABSOLUTE EOSINOPHIL / ABSOLUTE LYMPHOCYTE / ABSOLUTE MONOCYTE / ABSOLUTE SEGMENTED NEUTROPHIL / BASOPHIL / EOSINOPHIL / ERYTHROCYTE COUNT / HEMATOCRIT / HEMOGLOBIN / LEUKOCYTE COUNT / LYMPHOCYTE / MEAN CORPUSCULAR HEMOGLOBIN / MEAN CORPUSCULAR HEMOGLOBIN CONCENTRATION / MEAN CORPUSCULAR VOLUME / MONOCYTE / NEUTROPHIL / NUCLEATED RED BLOOD CELLS / PLATELET COUNT: tissue Blood
[1] = 72 h, dose 0.15 mg/Kg, dose level Low, time 3 day
[2] = 72 h, dose 1.5 mg/Kg, dose level High, time 3 day
[3] = 120 h, dose 0.15 mg/Kg, dose level Low, time 5 day
[4] = 120 h, dose 1.5 mg/Kg, dose level High, time 5 day

CCC1=C[C@@H]2CN(C1)Cc1c([nH]c3ccccc13)[C@@](C(=O)OC)(c1cc3c(cc1OC)N(C)[C@H]1[C@@](O)(C(=O)OC)[C@H](OC(C)=O)[C@]4(CC)C=CCN5CC[C@]31[C@@H]54)C2 [VINORELBINE]
ALANINE AMINOTRANSFERASE [1]: 59 u/L
ALBUMIN [1]: 4.53 G/DL
ALKALINE PHOSPHATASE [1]: 404 u/L
ASPARTATE AMINOTRANSFERASE [1]: 88.67 u/L
BLOOD UREA NITROGEN [1]: 17.33 mg/dL
CARBON DIOXIDE [1]: 27.33 mmol/L
CHLORIDE [1]: 101 MEQ/L
CHOLESTEROL [1]: 68.67 mg/dL
CREATINE PHOSPHOKINASE [1]: 237.67 u/L
CREATININE [1]: 0.23 mg/dL
GLUCOSE [1]: 167.33 mg/dL
LACTATE DEHYDROGENASE [1]: 308.67 u/L
LIPASE [1]: 9.67 u/L
PHOSPHORUS [1]: 13.7 mg/dL
POTASSIUM [1]: 6.88 MEQ/L
SODIUM [1]: 145.07 MEQ/L
TOTAL BILIRUBIN [1]: 0.23 mg/dL
TOTAL PROTEIN [1]: 6.33 G/DL
URIC ACID [1]: 2.1 mg/dL
ALANINE AMINOTRANSFERASE [2]: 45.33 u/L
ALBUMIN [2]: 4.47 G/DL
ALKALINE PHOSPHATASE [2]: 359.33 u/L
ASPARTATE AMINOTRANSFERASE [2]: 137.33 u/L
BLOOD UREA NITROGEN [2]: 20.67 mg/dL
CARBON DIOXIDE [2]: 24 mmol/L
CHLORIDE [2]: 103 MEQ/L
CHOLESTEROL [2]: 72.67 mg/dL
CREATINE PHOSPHOKINASE [2]: 671.33 u/L
CREATININE [2]: 0.17 mg/dL
GLUCOSE [2]: 185.67 mg/dL
LACTATE DEHYDROGENASE [2]: 160.33 u/L
LIPASE [2]: 10 u/L
PHOSPHORUS [2]: 13 mg/dL
POTASSIUM [2]: 5.92 MEQ/L
SODIUM [2]: 146 MEQ/L
TOTAL BILIRUBIN [2]: 0.1 mg/dL
TOTAL PROTEIN [2]: 6.2 G/DL
URIC ACID [2]: 2.37 mg/dL
ABSOLUTE BASOPHIL [3]: 0 CELLS/uL
ABSOLUTE EOSINOPHIL [3]: 49 CELLS/uL
ABSOLUTE LYMPHOCYTE [3]: 14282 CELLS/uL
ABSOLUTE MONOCYTE [3]: 49 CELLS/uL
ABSOLUTE SEGMENTED NEUTROPHIL [3]: 2420 CELLS/uL
BASOPHIL [3]: 0%
EOSINOPHIL [3]: 0.33%
ERYTHROCYTE COUNT [3]: 5.78 x10E6/uL
HEMATOCRIT [3]: 36.1%
HEMOGLOBIN [3]: 14.13 G/DL
LEUKOCYTE COUNT [3]: 16.8 x10E3/uL
LYMPHOCYTE [3]: 84.67%
MEAN CORPUSCULAR HEMOGLOBIN [3]: 24.47 pg
MEAN CORPUSCULAR HEMOGLOBIN CONCENTRATION [3]: 39.2 G/DL
MEAN CORPUSCULAR VOLUME [3]: 62.5 fL
MONOCYTE [3]: 0.33%
NEUTROPHIL [3]: 14.67%
NUCLEATED RED BLOOD CELLS [3]: 0 /100WBC
PLATELET COUNT [3]: 1168.33 x10E3/uL
ABSOLUTE BASOPHIL [4]: 0 CELLS/uL
ABSOLUTE EOSINOPHIL [4]: 0 CELLS/uL
ABSOLUTE LYMPHOCYTE [4]: 6817.33 CELLS/uL
ABSOLUTE MONOCYTE [4]: 24.67 CELLS/uL
ABSOLUTE SEGMENTED NEUTROPHIL [4]: 24.67 CELLS/uL
BASOPHIL [4]: 0%
EOSINOPHIL [4]: 0%
ERYTHROCYTE COUNT [4]: 5.47 x10E6/uL
HEMATOCRIT [4]: 31.93%
HEMOGLOBIN [4]: 12.93 G/DL
LEUKOCYTE COUNT [4]: 6.87 x10E3/uL
LYMPHOCYTE [4]: 99.33%
MEAN CORPUSCULAR HEMOGLOBIN [4]: 23.67 pg
MEAN CORPUSCULAR HEMOGLOBIN CONCENTRATION [4]: 40.5 G/DL
MEAN CORPUSCULAR VOLUME [4]: 58.4 fL
MONOCYTE [4]: 0.33%
NEUTROPHIL [4]: 0.33%
NUCLEATED RED BLOOD CELLS [4]: 0 /100WBC
PLATELET COUNT [4]: 359 x10E3/uL
ALANINE AMINOTRANSFERASE [3]: 48.33 u/L
ALBUMIN [3]: 4.33 G/DL
ALKALINE PHOSPHATASE [3]: 436.67 u/L
ASPARTATE AMINOTRANSFERASE [3]: 85 u/L
BLOOD UREA NITROGEN [3]: 16.67 mg/dL
CARBON DIOXIDE [3]: 27 mmol/L
CHLORIDE [3]: 100.67 MEQ/L
CHOLESTEROL [3]: 65.33 mg/dL
CREATINE PHOSPHOKINASE [3]: 245 u/L
CREATININE [3]: 0.2 mg/dL
GLUCOSE [3]: 166.33 mg/dL
LACTATE DEHYDROGENASE [3]: 152 u/L
LIPASE [3]: 9.33 u/L
PHOSPHORUS [3]: 12.43 mg/dL
POTASSIUM [3]: 7.02 MEQ/L
SODIUM [3]: 145.37 MEQ/L
TOTAL BILIRUBIN [3]: 0.2 mg/dL
TOTAL PROTEIN [3]: 6.27 G/DL
URIC ACID [3]: 2.07 mg/dL
ALANINE AMINOTRANSFERASE [4]: 58.67 u/L
ALBUMIN [4]: 4.23 G/DL
ALKALINE PHOSPHATASE [4]: 367.67 u/L
ASPARTATE AMINOTRANSFERASE [4]: 138.67 u/L
BLOOD UREA NITROGEN [4]: 15 mg/dL
CARBON DIOXIDE [4]: 31.33 mmol/L
CHLORIDE [4]: 100 MEQ/L
CHOLESTEROL [4]: 75 mg/dL
CREATINE PHOSPHOKINASE [4]: 193 u/L
CREATININE [4]: 0.19 mg/dL
GLUCOSE [4]: 143.67 mg/dL
LACTATE DEHYDROGENASE [4]: 98 u/L
LIPASE [4]: 9 u/L
PHOSPHORUS [4]: 10.6 mg/dL
POTASSIUM [4]: 6.34 MEQ/L
SODIUM [4]: 146.4 MEQ/L
TOTAL BILIRUBIN [4]: 0.2 mg/dL
TOTAL PROTEIN [4]: 6.13 G/DL
URIC ACID [4]: 0.9 mg/dL
